The molecules below were run against T1, Recombinant full length human OGA enzyme (Homo sapiens, UniProt O60502) (assay: OGA Enzyme Inhibition Biochemical Assay). Conditions: 1 nM OGA, 100 μM 4-MUGlcNAc (Km), pH 6.4, 90 minutes at room temperature, 10-point dose-response from 20 μM.
T1 construct: Recombinant full length human OGA enzyme was purchased from Origene; purchased Origene
T1 sequence (O60502 1-916): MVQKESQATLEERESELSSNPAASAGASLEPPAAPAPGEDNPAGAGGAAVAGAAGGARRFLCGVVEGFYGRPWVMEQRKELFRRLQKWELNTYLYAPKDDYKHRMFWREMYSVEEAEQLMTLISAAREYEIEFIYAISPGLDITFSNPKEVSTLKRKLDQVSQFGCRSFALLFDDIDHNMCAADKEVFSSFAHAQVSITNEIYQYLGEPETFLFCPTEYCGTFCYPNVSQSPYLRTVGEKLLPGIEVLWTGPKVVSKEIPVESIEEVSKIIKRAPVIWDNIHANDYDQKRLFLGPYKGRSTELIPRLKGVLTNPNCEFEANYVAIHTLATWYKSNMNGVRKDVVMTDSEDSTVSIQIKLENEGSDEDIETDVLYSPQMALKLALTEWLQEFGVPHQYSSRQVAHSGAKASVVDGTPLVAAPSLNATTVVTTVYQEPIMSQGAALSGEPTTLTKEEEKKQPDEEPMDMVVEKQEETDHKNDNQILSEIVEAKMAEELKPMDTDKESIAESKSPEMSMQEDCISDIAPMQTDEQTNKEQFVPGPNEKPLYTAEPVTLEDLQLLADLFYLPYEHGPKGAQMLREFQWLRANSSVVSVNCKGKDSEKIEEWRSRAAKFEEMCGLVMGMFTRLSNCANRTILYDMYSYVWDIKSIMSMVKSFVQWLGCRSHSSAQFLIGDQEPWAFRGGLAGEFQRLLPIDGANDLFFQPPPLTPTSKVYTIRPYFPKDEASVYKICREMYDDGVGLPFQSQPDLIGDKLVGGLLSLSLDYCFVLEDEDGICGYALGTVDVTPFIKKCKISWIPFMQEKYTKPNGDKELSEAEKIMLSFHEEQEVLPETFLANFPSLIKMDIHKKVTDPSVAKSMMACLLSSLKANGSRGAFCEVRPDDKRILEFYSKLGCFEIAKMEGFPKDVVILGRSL
Protocol: OGA Enzyme Inhibition Biochemical Assay
Recombinant full length human OGA enzyme was purchased from Origene. 4-MUGlCNAc substrate was purchased from Sigma. All other reagents were purchased from Sigma or Fisher. Assay buffer consists of the McIlvaine buffer system, pH 6.4 (0.2M Na2HPO4 mixed with 0.1M citric acid) and 0.01% BSA. Reactions consist of 1 nM OGA, 100 μM 4-MUGlcNAc (Km), and compound in a final volume of 10 μl. Reactions were incubated for 90 minutes at room temperature and quenched with 40 μl of 3M glycine, pH 10 and read on a Perkin Elmer Envision plate reader (Ex: 355 nm/Em: 460 nm). Compounds were tested with a 10-point dose-response starting from 20 μM with a 4-fold dilution. Data was fit using GraphPad Prism using a 4-parameter fit with variable slope.

Which IC50 does the source give for COc1cccc(CC2CCCN(Cc3cnc(NC(C)=O)s3)C2)c1 (stereo not shown) [Example 1-3, N-(5-((3-(3-methoxybenzyl)piperidin-1-yl)methyl)thiazol-2-yl)acetamide] here?
The IC50 was 33 nM.

With CC(=O)Nc1ncc(CN2CCCC(Cn3cc(C(C)=O)cn3)C2)s1 (stereo not shown) [Example 4-11, N-(5-((3-((4-acetyl-1H-pyrazol-1-yl)methyl)piperidin-1-yl)methyl)thiazol-2-yl)acetamide] as the molecule, how does the IC50 read?
The IC50 was 15 nM.

Which IC50 does the source give for COc1ccnc(CC2CCCN(Cc3cnc(NC(C)=O)s3)C2)c1 (stereo not shown) [Example 1-9, N-(5-((3-((4-methoxypyridin-2-yl)methyl)piperidin-1-yl)methyl)thiazol-2-yl)acetamide] here?
The IC50 was 12 nM.

Which IC50 does the source give for CC(=O)Nc1ncc(CN2CCCC(Cc3nc(C)cs3)C2)s1 (stereo not shown) [Example 1-34, N-(5-((3-((4-methylthiazol-2-yl)methyl)piperidin-1-yl)methyl)thiazol-2-yl)acetamide] here?
The IC50 was 5 nM.

How did the IC50 turn out when CC(=O)Nc1nc(F)c(CN2C[C@H](Cc3noc(C)n3)CC[C@@H]2C)s1 [Example 4-15, N-(4-fluoro-5-(((2S,5S)-2-methyl-5-((5-methyl-1,2,4-oxadiazol-3-yl)methyl)piperidin-1-yl)methyl)thiazol-2-yl)acetamide] was run?
The IC50 was 1.6 nM.

How did the IC50 turn out when CC(=O)Nc1ncc(CN2CCCC(Cn3nc(C)c(C)c3C)C2)s1 (stereo not shown) [Example 4-4, N-(5-((3-((3,4,5-trimethyl-1H-pyrazol-1-yl)methyl)piperidin-1-yl)methyl)thiazol-2-yl)acetamide] was run?
Its IC50 is 680 nM.

With COc1cccc(CC2CCCN(Cc3cnc(NC(C)=O)s3)C2)n1 (stereo not shown) [Example 1-6, N-(5-((3-((6-methoxypyridin-2-yl)methyl)piperidin-1-yl)methyl)thiazol-2-yl)acetamide] as the molecule, how does the IC50 read?
Its IC50 is 2 nM.

Which IC50 does the source give for CC(=O)Nc1ncc(CN2C[C@H](Cc3noc(C)n3)C[C@@H]2C)s1 [Example 4-14, N-(5-(((2S,4S)-2-methyl-4-((5-methyl-1,2,4-oxadiazol-3-yl)methyl)pyrrolidin-1-yl)methyl)thiazol-2-yl)acetamide] here?
The IC50 was 3.8 nM.

How did the IC50 turn out when CC(=O)Nc1ncc(CN2CCC(F)(F)C(Cc3ncc(F)cn3)C2)s1 (stereo not shown) [Example 2-14, N-(5-((4,4-difluoro-3-((5-fluoropyrimidin-2-yl)methyl)piperidin-1-yl)methyl)thiazol-2-yl)acetamide] was run?
Its IC50 is 12 nM.

For COc1ccc(CC2CCN(Cc3cnc(NC(C)=O)s3)C2)nc1 (stereo not shown) [Example 1-22, N-(5-((3-((5-methoxypyridin-2-yl)methyl)pyrrolidin-1-yl)methyl)thiazol-2-yl)acetamide], which IC50 is on record?
The IC50 was 100 nM.

With CC(=O)Nc1nc(F)c(CN2CC[C@H](Cc3ccnc(C)c3)C2)s1 [Example 3-33, (S)—N-(4-fluoro-5-((3-((2-methylpyridin-4-yl)methyl)pyrrolidin-1-yl)methyl)thiazol-2-yl)acetamide] as the molecule, how does the IC50 read?
Its IC50 is 4.8 nM.

For CC(=O)Nc1ncc(CN2CC(Cc3noc(C)n3)CC[C@@H]2C)s1 (stereo partly drawn) [Example 4-17, N-(5-(((2S)-2-methyl-5-((5-methyl-1,2,4-oxadiazol-3-yl)methyl)piperidin-1-yl)methyl)thiazol-2-yl)acetamide], which IC50 is on record?
Its IC50 is less than 1 nM.

For CC(=O)Nc1ncc(CN2CCC(Cc3cncc(F)c3)C2)s1 (stereo not shown) [Example 1-24, N-(5-((3-((5-fluoropyridin-3-yl)methyl)pyrrolidin-1-yl)methyl)thiazol-2-yl)acetamide], which IC50 is on record?
The IC50 was 31 nM.

CC(=O)Nc1ncc(CN2CCCC(Cc3ccn(C)n3)C2)s1 (stereo not shown) [Example 1-47, N-(5-((3-((1-methyl-1H-pyrazol-3-yl)methyl)piperidin-1-yl)methyl)thiazol-2-yl)acetamide] was tested. Which IC50 did it give?
Its IC50 is 16 nM.

How did the IC50 turn out when CC(=O)Nc1nnc(CN2CC[C@H](Cc3cc(C)nc(C)c3)C2)s1 [Example 3-47, (S)—N-(5-((3-((2,6-dimethylpyridin-4-yl)methyl)pyrrolidin-1-yl)methyl)-1,3,4-thiadiazol-2-yl)acetamide] was run?
The IC50 was 130 nM.

For CC(=O)Nc1ncc(CN2CCC(Cc3ncc(F)cn3)C2C)s1 (stereo not shown) [Example 2-42, N-(5-((3-((5-fluoropyrimidin-2-yl)methyl)-2-methylpyrrolidin-1-yl)methyl)thiazol-2-yl)acetamide], which IC50 is on record?
Its IC50 is 250 nM.

Which IC50 does the source give for CC(=O)Nc1ncc(CN2CCC(C(C)c3ncc(F)cn3)C2)s1 (stereo not shown) [Example 2-36, N-(5-((3-(1-(5-fluoropyrimidin-2-yl)ethyl)pyrrolidin-1-yl)methyl)thiazol-2-yl)acetamide] here?
The IC50 was 1 nM.

How did the IC50 turn out when CC(=O)Nc1ncc(CN2CCCC(Cc3ccc(F)cn3)C2)s1 (stereo not shown) [Example 2-5, N-(5-((3-((5-fluoropyridin-2-yl)methyl)piperidin-1-yl)methyl)thiazol-2-yl)acetamide] was run?
The IC50 was 23 nM.

CC(=O)Nc1ncc(CN2CCCC(Cc3nccs3)C2)s1 (stereo not shown) [Example 1-39, N-(5-((3-(thiazol-2-ylmethyl)piperidin-1-yl)methyl)thiazol-2-yl)acetamide] was tested. Which IC50 did it give?
Its IC50 is 11 nM.

With CC(=O)Nc1nc(F)c(CN2C[C@H](Cc3ncc(F)cn3)C[C@@H]2C)s1 [Example 3-40, N-(4-fluoro-5-(((2S,4S)-4-((5-fluoropyrimidin-2-yl)methyl)-2-methylpyrrolidin-1-yl)methyl)thiazol-2-yl)acetamide] as the molecule, how does the IC50 read?
Its IC50 is 150 nM.

For CC(=O)Nc1nc(F)c(CN2CCC[C@H](Cc3ncc(F)cn3)C2)s1 [Example 3-48, (R)-N-(4-fluoro-5-((3-((5-fluoropyrimidin-2-yl)methyl)piperidin-1-yl)methyl)thiazol-2-yl)acetamide], which IC50 is on record?
The IC50 was less than 1 nM.

Which IC50 does the source give for CC(=O)Nc1ncc(CN2CC[C@H](Cc3ncc(F)cn3)C2)s1 (single isomer, unassigned) [Example 2-1] here?
The IC50 was 7 nM.

For CC(=O)Nc1ncc(CN2CCCC(Cn3cc(C4CC4)cn3)C2)s1 (stereo not shown) [Example 4-6, N-(5-((3-((4-cyclopropyl-1H-pyrazol-1-yl)methyl)piperidin-1-yl)methyl)thiazol-2-yl)acetamide], which IC50 is on record?
Its IC50 is 540 nM.

For CC(=O)Nc1ncc(CN2C[C@@H](Cc3ncc(F)cn3)C[C@@H]2C)s1 (single isomer, unassigned) [Example 2-21], which IC50 is on record?
Its IC50 is 108 nM.

CC(=O)Nc1ncc(CN2C[C@H](Cc3ncc(F)cn3)CC[C@H]2C)s1 (single isomer, unassigned) [Example 2-27] was tested. Which IC50 did it give?
Its IC50 is less than 1 nM.

Which IC50 does the source give for COc1ccc(CC2CCCN(Cc3cnc(NC(C)=O)s3)C2)nc1 (stereo not shown) [Example 1-10, N-(5-((3-((5-methoxypyridin-2-yl)methyl)piperidin-1-yl)methyl)thiazol-2-yl)acetamide] here?
The IC50 was 20 nM.

Which IC50 does the source give for CC(=O)Nc1ncc(CN2CCCC(Cn3cncn3)C2)s1 (stereo not shown) [Example 4-21, N-(5-((3-((1H-1,2,4-triazol-1-yl)methyl)piperidin-1-yl)methyl)thiazol-2-yl)acetamide] here?
Its IC50 is 38 nM.

Which IC50 does the source give for COc1cc(CC2CCCN(Cc3cnc(NC(C)=O)s3)C2)ccn1 (stereo not shown) [Example 1-7, N-(5-((3-((2-methoxypyridin-4-yl)methyl)piperidin-1-yl)methyl)thiazol-2-yl)acetamide] here?
Its IC50 is 3 nM.

With CC(=O)Nc1ncc(CN2CCCC(Cc3ccncc3)C2)s1 (stereo not shown) [Example 1-40, N-(5-((3-(pyridin-4-ylmethyl)piperidin-1-yl)methyl)thiazol-2-yl)acetamide] as the molecule, how does the IC50 read?
The IC50 was 4 nM.

Which IC50 does the source give for CC(=O)Nc1nc(F)c(CN2C[C@@H](Cc3noc(C)n3)CC[C@@H]2C)s1 [Example 4-16, N-(4-fluoro-5-(((2S,5R)-2-methyl-5-((5-methyl-1,2,4-oxadiazol-3-yl)methyl)piperidin-1-yl)methyl)thiazol-2-yl)acetamide] here?
The IC50 was less than 1 nM.

For COc1cc(CC2CCN(Cc3cnc(NC(C)=O)s3)C2)ccn1 (stereo not shown) [Example 1-19, N-(5-((3-((2-methoxypyridin-4-yl)methyl)pyrrolidin-1-yl)methyl)thiazol-2-yl)acetamide], which IC50 is on record?
The IC50 was 10 nM.

Which IC50 does the source give for CC(=O)Nc1ncc(CN2CCCC(Cc3ncnc4ccsc34)C2)s1 (stereo not shown) [Example 1-44, N-(5-((3-(thieno[3,2-d]pyrimidin-4-ylmethyl)piperidin-1-yl)methyl)thiazol-2-yl)acetamide] here?
The IC50 was 2 nM.

With CC(=O)Nc1ncc(CN2CCCC(F)(Cc3ncc(F)cn3)C2)s1 (stereo not shown) [Example 2-12, N-(5-((3-fluoro-3-((5-fluoropyrimidin-2-yl)methyl)piperidin-1-yl)methyl)thiazol-2-yl)acetamide] as the molecule, how does the IC50 read?
The IC50 was 240 nM.

CC(=O)Nc1ncc(CN2CCCC(Cc3ccccc3)C2)s1 (stereo not shown) [Example 1-28, N-(5-((3-benzylpiperidin-1-yl)methyl)thiazol-2-yl)acetamide] was tested. Which IC50 did it give?
The IC50 was 52 nM.
